Data: ChEMBL document CHEMBL1146116, “N-thiolated 2-oxazolidinones: a new family of antibacterial agents for methicillin-resistant Staphylococcus aureus and Bacillus anthracis” (2006)
Values after ≈ are worked out from the molar mass of the structure shown.

Legend:
Format in all cases: functional
Heyndrickxia coagulans = assay: Antibacterial activity against Bacillus coagulans by agar disk diffusion method
Staphylococcus aureus [1] = assay: Antibacterial activity against methicillin-resistant Staphylococcus aureus
Staphylococcus aureus [2] = assay: Antibacterial activity against methicillin-resistant Staphylococcus aureus USF919 ATCC 43300 by agar disk diffusion method
Staphylococcus aureus [3] = assay: Antibacterial activity against methicillin-resistant Staphylococcus aureus USF920 ATCC 33591 by agar disk diffusion method
Staphylococcus aureus [4] = assay: Antibacterial activity against Staphylococcus aureus 849 ATCC 25923 by agar disk diffusion method
Staphylococcus aureus [5] = assay: Antibacterial activity against Staphylococcus aureus
Staphylococcus aureus [6] = assay: Antibacterial activity against methicillin-resistant Staphylococcus aureus USF653 by agar disk diffusion method
Staphylococcus aureus [7] = assay: Antibacterial activity against methicillin-resistant Staphylococcus aureus USF654 by agar disk diffusion method
Staphylococcus aureus [8] = assay: Antibacterial activity against methicillin-resistant Staphylococcus aureus USF655 by agar disk diffusion method
Staphylococcus aureus [9] = assay: Antibacterial activity against methicillin-resistant Staphylococcus aureus USF656 by agar disk diffusion method
Staphylococcus aureus [10] = assay: Antibacterial activity against methicillin-resistant Staphylococcus aureus USF657 by agar disk diffusion method
Staphylococcus aureus [11] = assay: Antibacterial activity against methicillin-resistant Staphylococcus aureus USF658 by agar disk diffusion method
Staphylococcus aureus [12] = assay: Antibacterial activity against methicillin-resistant Staphylococcus aureus USF659 by agar disk diffusion method
Bacillus subtilis [13] = assay: Antibacterial activity against Bacillus globigii by agar disk diffusion method
Bacillus thuringiensis = assay: Antibacterial activity against Bacillus thuringiensis by agar disk diffusion method
Priestia megaterium = assay: Antibacterial activity against Bacillus megaterium by agar disk diffusion method
Bacillus subtilis [14] = assay: Antibacterial activity against Bacillus subtilis by agar disk diffusion method
Bacillus cereus = assay: Antibacterial activity against Bacillus cereus by agar disk diffusion method
Staphylococcus aureus [15] = assay: Antibacterial activity against methicillin-resistant Staphylococcus aureus USF652 by agar disk diffusion method

Compound	inhibition zone (IZ) (Heyndrickxia coagulans) [mm]	MIC (Staphylococcus aureus [1]) [µg/mL]	inhibition zone (IZ) (Staphylococcus aureus [2]) [mm]	inhibition zone (IZ) (Staphylococcus aureus [3]) [mm]	inhibition zone (IZ) (Staphylococcus aureus [4]) [mm]	MIC (Staphylococcus aureus [5]) [µg/mL]	inhibition zone (IZ) (Staphylococcus aureus [6]) [mm]	inhibition zone (IZ) (Staphylococcus aureus [7]) [mm]	inhibition zone (IZ) (Staphylococcus aureus [8]) [mm]	inhibition zone (IZ) (Staphylococcus aureus [9]) [mm]	inhibition zone (IZ) (Staphylococcus aureus [10]) [mm]	inhibition zone (IZ) (Staphylococcus aureus [11]) [mm]	inhibition zone (IZ) (Staphylococcus aureus [12]) [mm]	inhibition zone (IZ) (Bacillus subtilis [13]) [mm]	inhibition zone (IZ) (Bacillus thuringiensis) [mm]	inhibition zone (IZ) (Priestia megaterium) [mm]	inhibition zone (IZ) (Bacillus subtilis [14]) [mm]	inhibition zone (IZ) (Bacillus cereus) [mm]	inhibition zone (IZ) (Staphylococcus aureus [15]) [mm]
CSN1C(=O)OC[C@@H]1C(C)C	17	16 (≈ 91.3 µM)	21	18	20	16 (≈ 91.3 µM)	27	23	22	22	22	16	22	15	16	18	17	22	19
CSN1C(=O)O[C@@H](CN=[N+]=[N-])[C@@H]1c1ccccc1	–	–	32	32	31	–	32	30	30	31	30	31	28	–	–	–	–	–	30
CSN1CC(CCl)OC1=O (stereo not given)	–	–	20	16	21	–	20	20	20	22	21	18	19	–	–	–	–	–	16
CCC(C)SN1CC(CCl)OC1=O (stereo not given)	–	–	19	19	19	–	20	22	22	20	22	21	20	–	–	–	–	–	19
CSN1C(=O)OC[C@H]1C(C)C	0	–	13	15	21	–	25	20	18	20	19	19	22	17	0	10	19	15	12
CSN1C(=O)OC[C@H]1c1ccccc1	17	8 (≈ 38.2 µM)	28	28	29	8 (≈ 38.2 µM)	30	26	28	28	27	27	26	17	15	20	19	23	30
CSN1C(=O)OCC1Cc1ccccc1 (stereo not given)	–	–	19	19	17	–	20	18	17	19	19	17	19	–	–	–	–	–	17
CC1(C)S[C@@H]2[C@H](NC(=O)Cc3ccccc3)C(=O)N2[C@H]1C(=O)O [PENICILLIN G]	–	–	–	–	33	–	15	10	14	12	12	19	16	–	–	–	–	–	8
CO[C@H]1C(=O)N(SC)[C@H]1c1ccccc1	–	–	–	–	25	–	30	26	25	28	27	26	24	–	–	–	–	–	30
CSN1C(=O)OC[C@@H]1c1ccccc1	17	–	30	28	30	–	31	29	29	31	29	29	26	15	17	18	19	24	30
COC(=O)[C@@H]1OC(=O)N(SC)[C@H]1c1ccccc1	–	–	11	0	16	–	19	14	14	15	12	14	16	–	–	–	–	–	12
